Experimental data as given in US10597674B2, “HPPD variants and methods of use” (BASF Agricultural Solutions Seed, US LLC, priority 2015, dated 2020).

Key:
[1] = test system: transgenic T1 soybean events; experiment: Field trials of T1 soybean events, leaf damage eight days after application; format: in vivo; settings: wild-type or segregated T1 soybean plants without tolerant polypeptide; 210 g/ha isoxaflutole or 150 g/ha Cmpd. 1; eight days
Method in brief: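 T1 soybean events carrying the HPPD inhibitor tolerant polypeptide, field-grown and sprayed with isoxaflutole 210 g/ha or Cmpd 150 g/ha. Leaf damage scored eight days after application; good tolerance defined as ≤15% damaged leaf area, reported as event frequency.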

[2] = test system: E. coli cells expressing an HPPD polypeptide; experiment: Brown color bioassay in liquid culture, residual brown color formation (BCF), OD440 after 96 hours; format: cell-based
Method in brief: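 E. coli expressing HPPD variants were grown at 30 degrees Celsius from OD600 0.3-0.5 in LB with 5 mM HPP, with or without herbicide (e.g. Cmpd. 1, 1000 μM). After 96 hours, supernatant OD440 was measured; residual brown colour formation compares pigment with and without inhibitor.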

[3] = test system: transgenic soybean T0 events; experiment: Additional greenhouse trials of T0 soybean events, leaf damage score 0-100 as percentiles; format: in vivo; settings: wild-type plants, 300 g AI/ha, five days, scale 0-100
Method in brief: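 Independent T0 events (21 to 94 per construct, single cassette insertion) expressing mutant HPPD were sprayed with HPPD inhibitor herbicide in the greenhouse. Leaf damage scored 5 days after application from 0 (no damage) to 100 (complete bleaching). Scores reported as percentile distributions (25th, median, 75th) per construct.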

[4] = test system: transgenic soybean T0 events; experiment: Greenhouse spray test of T0 soybean events, herbicide tolerance rating 0-3; format: in vivo; settings: wild-type soybean plants, 300 g AI/ha, 5 days after spraying
Procedure: Tolerant green shoots were transferred to rooting media or grafted. Rooted plantlets were transferred to the greenhouse after an acclimation period. Plants containing the transgene were then sprayed with HPPD inhibitor herbicides, as for example with mesotrione at a rate of 300-600 g AI/ha, or with Cmpd. […] Five to ten days after the application, the symptoms due to the application of the herbicide were evaluated and compared to the symptoms observed on wild-type plants under the same conditions.
For example, T0 soybean plants having a “plant expression cassette”, which includes an HPPD inhibitor tolerant HPPD polypeptide of the present invention, were tested towards the tolerance of Cmpd. 1.
Prior greenhouse trials with the transgenic plants, soybean transformants were routinely analyzed for the expression and presence of the transgenes using the ELISA protein detection method (see detailed description under item D and H). Only plants recovering in the selection media and having a detectable HPPD transgene protein expression were used for the herbicide tolerance analysis. A DeVries Tracker Sprayer was calibrated prior to each spraying. The chemical formulation used for Cmpd. 1 was supplemented with ammonium sulfate and methylated rape seed oil. Spray tests were conducted with a concentration, which equals to 300 grams AI per hectare (300 g AI/ha). Tolerance was evaluated 5 days after spraying. […] A rating of “3” was assigned to plants showing good tolerance, i.e. less than 10% of the leaf area from the top three trifoliate leaves showing chlorosis or only very slight bleaching.

Question: CSc1c(C(F)(F)F)ccc(C(=O)Nc2nnnn2C)c1Cl [Cmpd. 1, 2-chloro-3-(methylsulfanyl)-N-(1-methyl-1H-tetrazol-5-yl)-4-(trifluoromethyl)benzamide, reference compound] was tested. Which leaf damage [1] did it give?
Answer: 100%

Question: And the “Control BCF OD440nm” value ([2]; brown color formation in absence of Cmpd. 1, culture supernatant after 96 hours, 5 mM HPP)?
Answer: 2.66

Question: What about the “Residual BCF OD440nm [%]” value ([2]; brown color formation with Cmpd. 1 (1000 μM) relative to without, after 96 hours) of the same molecule?
Answer: 15%

Question: And the damage score [3]?
Answer: 95-100

Question: What about the “leaf damage of the top two trifoliate leaves” value [4] of the same molecule?
Answer: more than 95%
